From article PMC8691691 (ACS Chemical Neuroscience, 2021)
Positions count from the first letter of the chain named. Read-outs that look alike come from different tables or passages of the source.

Columns and labels:
GlyT2 A223C mutant = biological target: T1, GlyT2 A223C mutant (Rattus norvegicus, UniProt P58295, A223C); assay: MTSEA-biotin labeling of A223C mutant in NaCl or choline chloride, COS7 cells; type: cell-based; conditions: 1 μM inhibitor; HBS containing NaCl or choline chloride
T1 construct: expressed in transfected cells; host or cells: COS7
T1 sequence (P58295 1-799 A223C): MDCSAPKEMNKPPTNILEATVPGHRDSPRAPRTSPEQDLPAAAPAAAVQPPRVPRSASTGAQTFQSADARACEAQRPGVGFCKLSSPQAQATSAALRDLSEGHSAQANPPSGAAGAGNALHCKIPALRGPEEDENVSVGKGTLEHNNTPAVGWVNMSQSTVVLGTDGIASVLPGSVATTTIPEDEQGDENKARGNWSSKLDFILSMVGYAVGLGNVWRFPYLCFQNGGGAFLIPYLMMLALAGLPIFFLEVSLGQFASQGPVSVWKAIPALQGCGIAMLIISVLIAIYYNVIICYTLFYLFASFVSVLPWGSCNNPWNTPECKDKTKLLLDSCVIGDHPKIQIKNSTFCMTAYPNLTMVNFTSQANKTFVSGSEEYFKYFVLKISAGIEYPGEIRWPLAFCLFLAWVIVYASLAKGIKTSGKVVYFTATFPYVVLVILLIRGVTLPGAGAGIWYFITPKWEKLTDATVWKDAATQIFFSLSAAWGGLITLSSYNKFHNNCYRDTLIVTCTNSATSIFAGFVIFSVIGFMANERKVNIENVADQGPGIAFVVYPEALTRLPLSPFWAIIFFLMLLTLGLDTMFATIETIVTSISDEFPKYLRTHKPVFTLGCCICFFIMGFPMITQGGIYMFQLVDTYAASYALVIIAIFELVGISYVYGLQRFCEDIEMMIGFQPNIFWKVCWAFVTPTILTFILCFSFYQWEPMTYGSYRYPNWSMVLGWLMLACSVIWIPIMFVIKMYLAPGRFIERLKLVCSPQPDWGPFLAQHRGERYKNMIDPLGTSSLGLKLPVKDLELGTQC
Excerpt: Several pieces of evidence were obtained to confirm this prediction (Figure 7). […] A second piece of evidence came from experiments using the […] mutant of GlyT2 that contains an exogenous cysteine in EL1, a region sensitive to the different conformations of the transporter induced by the substrates during the transport cycle.[44] […] Then, the cells were washed and subjected to MTSEA-biotin staining as described above.

GlyT2 F478Y mutant = biological target: T2, GlyT2 F478Y mutant (Rattus norvegicus, UniProt P58295, F478Y); assay: [3H]glycine transport by GlyT2 mutant in COS7 cells; type: cell-based
T2 construct: expressed in transfected cells; host or cells: COS7
T2 sequence (P58295 1-799 F478Y): T1 sequence (P58295 1-799 A223C) with C223A, F478Y
Excerpt: To validate the predicted interactions between the inhibitors and GlyT2, we used systematic site-directed mutagenesis to construct substitution mutants of the potential residues involved in ligand binding. […] The GlyT2 residues predicted to interact with the inhibitors through its side chain were replaced by amino acids expected to force the loss of the interaction. In the cases where the interaction occurred through the backbone, the inserted amino acid sought to alter the disposition of the substituted residue to lose the coordination.
Substitution mutants were generated with the QuikChange II Site-Directed Mutagenesis kit (Agilent Technologies, Santa Clara, CA, USA), using rGlyT2 or rGlyT1 subcloned in pCDNA3.[47] The complete coding region of all of the constructs was sequenced to verify that only the desired mutation had been introduced. […] COS7 cells were grown and transfected using Turbofect Transfection Reagent (Thermo Fisher Scientific, Waltham, MA, USA), following the manufacturer’s protocol (2 μL reagent/μg of DNA). Cells were incubated for 48 h at 37 °C until used.
At the end of the desired time (usually 10 min), reactions were washed and terminated by aspiration. […] A nonlinear curve fitting method was used to obtain IC50 values using Graphpad Prism software, version 6.0, Graphpad, San Diego, CA, USA.

IC50 (GlyT2 F478Y mutant; read-out: IC50 (Table S1)) [nM] | SMILES | MTSEA-biotin labeling of A223C, sodium dependence (GlyT2 A223C mutant) | IC50 (GlyT2 F478Y mutant) [nM]
50 ± 5 | N[C@@H](COC(c1cccc(F)c1)c1ccccc1OCc1ccccc1)C(=O)O (stereo partly shown) [ALX1393] | abolished the label in NaCl but left it intact in choline chloride | –
– | COc1cc(C(=O)NCC2(N(C)C)CCCC2)cc(OC)c1OCc1ccccc1 [ORG25543, N-[[1-(dimethylamino)cyclopentyl]methyl]-3,5-dimethoxy-4-(phenylmethoxy)benzamide] | protects the labeling independently of the cation present in the buffer | 19 ± 7
